For orientation: IC50 means the concentration at which inhibition is half-maximal.

The values below come from publication PMC11173677, “Identification and Evaluation of Olive Phenolics in the Context of Amine Oxidase Enzyme Inhibition and Depression: In Silico Modelling and In Vitro Validation” (Molecules, 2024).

One experiment relates to T1, MAO-B.
T1 construct: endogenous in cells; host or cells: BJ human foreskin fibroblasts stimulated with DEX or HC
The experiment in a line: MAO-B activity assay in hESC-derived neurons stimulated with ATRA. Format: cell-based, human. Particulars: 1 μM ATRA 24 h, then TCP 5 μM, OLC 50 μM or OLP 50 μM for 24 h. On the procedure: An in vitro model of MDD was designed for stem cell-derived neuronal cells through incubation of 1 μM all-trans retinoic acid (Sigma-Aldrich PHR1187, St. Louis, MO, USA). All cell treatments were conducted in duplicate and replicated using independently differentiating neuronal plates.
Activity assays were commercially sourced from BioVision (Abcam, BioVision ab241031, Waltham, MA, USA) and were performed according to manufacturer’s instructions. The treatment groups were plated in duplicate on a black, flat 96-well microplate. The cells were homogenised in assay buffer using a microtube mixer at 4 °C and centrifuged at 10,000× g for 10 min. A Bradford assay was performed to determine the total protein concentration within each cell pellet (200 μg/well for BJ cells, 40 μg/well for hESC-derived neurons). Approximately 40 μL of supernatant was loaded into wells along with 10 μL of either […], or assay buffer for total MAO activity. A H2O2 standard was pipetted as supplied and 50 μL of reaction mix was pipetted into all wells. Using a CLARIOstar Plus Microplate Reader, (BMG Labtech, Ortenberg, Germany), fluorescence was measured kinetically at 25 °C for 60 min with Ex/Em = 535/587 nm.

Experiment [1] concerns the target T2, LSD1 (Homo sapiens, UniProt O60341).
T2 construct: Reaction Biology Corporation (performed the assay)
The experiment can be described thus: LSD1 fluorescence coupling enzyme assay (Reaction Biology Corporation). It is filed as biochemical. The following applies: Reaction Biology Corp., 30 min pre-incubation, 10 μM histone H3(1-21)K4me2 peptide substrate; read-out: IC50, LSD1 demethylase activity. On the procedure:
The inhibitory activity of HCl 489479, OLC, and OLP was measured using a fluorescence coupling enzyme assay (performed by Reaction Biology Corporation). […] All compounds were pre-incubated for 30 min with the enzyme before the addition of 10 μM histone H3(1-21)K4me2 peptide substrate to start the reaction. Fluorescence was measured using an EnVision Multimode Plate Reader at Ex/Em = 535/590.

In experiment [2] the test system is T3, LSD1.
T3 construct: nuclear proteins extracted from the BJ cultures were directly assayed for LSD1 activity; endogenous in cells; host or cells: BJ human foreskin fibroblasts (nuclear extract, DEX-stimulated)
The experiment in a line: LSD1 activity in nuclear extracts of BJ cells stimulated with DEX. Format: cell-based, human. Particulars: DEX 50 μM 72 h, then TCP 5 μM or OLP, HT, HTA 50 μM for 48 h.
Protocol: Histone demethylase LSD1 activity assay
4µL of nuclear extracts containing 5µg protein was added to designated strip wells with stably
captured LSD1 substrate (H3K4me2), followed by an additional 26µL of H3K4me2 (HG3)
substrate diluted in assay buffer (HG2). In no enzyme control wells, the 4µL of nuclear
extracts was replaced with 4µL of assay buffer. Blank wells contained 30µL of assay buffer.
A standard curve was generated by adding 1µL of standard (HG4) at incrementally increasing
concentrations (0.1-10ng/µL) to 29µL of assay buffer in designated standard wells. After all
wells were loaded appropriately, the assay plate was incubated away from light at room
temperature for 60 minutes. Following incubation, contents were aspirated and wells were
washed three times with 150µL of wash buffer (HG1). 50µL of capture antibody (HG5)
diluted at a 1:1000 ratio was then added to all wells before incubating at room temperature
for 60 minutes on a rotating platform. Well contents were then aspirated and washed four
times with 150µL of wash buffer. 50µL of detection antibody (HG6) diluted at a 1:1000 ration
was then added to each well. Assay plate was then incubated for a final time at room
temperature for 30 minutes. Well contents were aspirated again, followed by six washes with
150µL wash buffer. 50µL of fluoro-developer (HG7) was then added into each well and
allowed to develop away from light for 1-5 minutes. Fluorescence was then read on a
CLARIOstar Microplate Reader (BMG Labtech, Ortenberg Germany) at Ex/Em =

For another experiment, the system named is H3K4 mono-methylation. The experiment can be described thus: H3K4 mono-methylation in BJ cells (Western blotting). Format: cell-based, human. Particulars: 50 μM, 48 h, compared to untreated cells; effects more pronounced with DEX. How it is done: As described in the Supplementary Information, nuclear proteins extracted from the BJ cultures were directly assayed for LSD1 activity (Epigentek P-3076, Farmingdale, NY, USA). Fluorescence was read on a CLARIOstar Microplate Reader (BMG Labtech, Ortenberg, Germany) at Ex/Em = 530/590 nm (Figure S4). Histone proteins were extracted from the treated cultures and were analysed through Western blotting. The mono-methylation status of lysine on histone 3 (H3K4) was determined via immunodetection (Table S6).
100µL of Nuclear Extraction Buffer containing 0.2µL 1M DTT and 0.4µL PIC was then added to the remaining nuclei-containing pellets. Full resuspension was achieved through multiple rounds of vigorous vortexing and ice incubations (to maintain protein integrity). Once the entire pellet was visibly resuspended in NEB, tubes were centrifuged at 16,000g for 10 minutes. The resulting supernatant containing the nuclear extract fraction was transferred to clean 0.5mL tubes and stored at -80°C.
Acid extraction of histone proteins
Cells were washed in 10mL of pre-chilled PBS (1X) and detached from flask surface via mechanical disruption using a cell scraper. Cell solution was then transferred into a 15mL tube and centrifuged at 150g for 10 minutes. Supernatant was then discarded and the remaining cell pellet resuspended in 0.5mL PBS (1X) and transferred into a 1.5mL microcentrifuge tube. Cells were then centrifuged at 9400g for 20 seconds, after which the supernatant was removed and discarded. The remaining pellet was then briefly resuspended in 600µL of acid extraction lysis buffer (10mM KCl, 10mM HEPES, […]) containing cOmplete™ Mini Protease Inhibitor Cocktail (Sigma-Aldrich, Roche 11836153001, MO USA) and 0.3µL 1M DTT. This will cause cells to pre-swell, resulting in a reduced amount of PBS (1X) remaining in the microcentrifuge tube that may deter maximal cell lysis capacity. Cells were then centrifuged at 9400g for 20 seconds with the resultant supernatant aspirated and discarded. […]
A general note: A western blot detects proteins with antibodies after separation by electrophoresis.

For `COC(=O)[C@H](O)CC(=O)OCCc1ccc(O)c(O)c1` [OLP, oleohydroxypyretol], the “MAO-B activity in hESC-derived neurons” value in the experiment with MAO-B is listed as “significantly reduced”. On LSD1 [1], the half-inhibitory concentration (IC50) is 0.12 µM. Also, the “LSD1 activity in BJ cultures stimulated with DEX” value with LSD1 [2] is on record as “significant reduction”. Moreover, the “baseline levels of H3K4 mono-methylation in BJ cells” value in the experiment on H3K4 mono-methylation is reported as “increased”.
